Data on five compounds can be found in DBAASP.

Molecules are shown by their SMILES. Converted amounts (≈) assume the structure as drawn. Where only a bound is given, the exact number is not on record here.

Common to all, as to assay: ≥ marks a high value that may be exact or a test limit, other limits are often not marked, values filed in µg/mL are converted to µM
Test [1] has as its system Bacillus subtilis KCTC 3068.
Test [2] concerns Escherichia coli KCTC 1682.
Test [3] has as its system Pseudomonas aeruginosa CCARM 2095.
Test [4] has as its system Pseudomonas aeruginosa CCARM 2109.
Test [5] has as its system Pseudomonas aeruginosa KCTC 1637.
Test [6] has as its system Salmonella typhimurium KCTC 1926.
The subject of test [7] is Staphylococcus aureus CCARM 3001.
Test [8] deals with Staphylococcus aureus CCARM 3543.
Test [9] concerns Staphylococcus aureus KCTC 1621.
Test [10] concerns Staphylococcus epidermidis KCTC 1917.
Test [11] relates to Bacillus subtilis ATCC 6633.
Test [12] deals with Pseudomonas fluorescens ATCC 13525.
Test [13] has as its system Staphylococcus aureus ATCC 2592.
Test [14] concerns Escherichia coli PCM 2057.
In test [15] the test system is Staphylococcus aureus PCM 1944.
Test [16] has as its system Candida albicans.
Test [17] deals with Enterobacter cloacae NHTCC 53001.
Test [18] concerns Enterococcus faecalis ATCC 29212.
Test [19] concerns Escherichia coli 0112 EIEC26.
In test [20] the test system is Escherichia coli 0112 EIEC27.
Test [21] relates to Escherichia coli 0143 EIEC7.
In test [22] the test system is Escherichia coli 0152 EIEC1.
Test [23] relates to Escherichia coli 0164 EIEC6.
Test [24] has as its system Escherichia coli ATCC 25922.
In test [25] the test system is Escherichia coli ATCC 35218.
For test [26], the system named is Escherichia coli AX-054-1-3.
In test [27] the test system is Escherichia coli AX-100-3-1.
The subject of test [28] is Escherichia coli AX-109-2-3.
Test [29] deals with Escherichia coli AX-128-3-3.
Test [30] concerns Escherichia coli O157:H7 282.
For test [31], the system named is Escherichia coli O157:H7 30328.
Test [32] deals with Escherichia coli O157:H7 734/94.
Test [33] deals with Escherichia coli O157:H7 CB6392.
Test [34] relates to Escherichia coli O26:H- CB6418.
For test [35], the system named is Escherichia coli O26:H11 3.
Test [36] relates to Escherichia coli O6:K15:H31 536.
Test [37] relates to Escherichia coli U7103.
Test [38] has as its system Escherichia coli U7794.
Test [39] has as its system Escherichia coli.
The test system of test [40] is Klebsiella pneumoniae KK3 9904.
Test [41] deals with Proteus mirabilis ATCC 25933.
The test system of test [42] is Pseudomonas aeruginosa ATCC 27853.
In test [43] the test system is Staphylococcus aureus NCTC 8325.
Test [44] concerns Staphylococcus aureus.
The test system of test [45] is Staphylococcus epidermidis RP62A.
For test [46], the system named is Candida albicans ATCC 36232.
The subject of test [47] is Corynebacterium diphtheriae ATCC 8024.
Test [48] relates to Escherichia coli ATCC 2592.
Test [49] has as its system Micrococcus luteus ATCC 9341.
Test [50] relates to Pseudomonas aeruginosa ATCC 9027.
Test [51] deals with Shigella flexneri ATCC 203.
Test [52] concerns Staphylococcus aureus ATCC 6538.
In test [53] the test system is Staphylococcus epidermidis ATCC 12228.

With `CC(C)C[C@H](NC(=O)[C@H](Cc1c[nH]c2ccccc12)NC(=O)[C@H](CCCCN)NC(=O)[C@H](CC(C)C)NC(=O)[C@H](Cc1c[nH]c2ccccc12)NC(=O)[C@H](CC(C)C)NC(=O)[C@H](CCCCN)NC(=O)[C@H](Cc1c[nH]c2ccccc12)NC(=O)[C@H](CC(C)C)NC(=O)[C@@H](N)CCCCN)C(=O)N[C@@H](CCCCN)C(N)=O` [KLWKLWLKWLK], the MIC (as a rule, the lowest concentration found to suppress growth) was 4 µM (≈ 6.16 µg/mL) in test [1]; 4 µM (≈ 6.16 µg/mL) in [2]; 16 µM (≈ 24.7 µg/mL) in test [3]; 16 µM (≈ 24.7 µg/mL) in [4]; 4 µM (≈ 6.16 µg/mL) in test [5]; 2 µM (≈ 3.08 µg/mL) in [6]. Besides, the MIC in test [7] worked out at 8 µM (≈ 12.3 µg/mL); in [8] it was 4 µM (≈ 6.16 µg/mL); in test [9], 2 µM (≈ 3.08 µg/mL); in test [10], 4 µM (≈ 6.16 µg/mL).

Turning to `CC[C@H](C)[C@H](NC(=O)[C@H](CCCCN)NC(=O)[C@H](CC(C)C)NC(=O)[C@H](Cc1ccccc1)NC(=O)[C@H](CO)NC(=O)[C@H](CC(C)C)NC(=O)[C@H](Cc1ccccc1)NC(=O)[C@H](CCCN=C(N)N)NC(=O)[C@H](CO)NC(=O)[C@H](CC(C)C)NC(=O)[C@@H](N)CO)C(=O)N[C@H](C(=O)N[C@@H](Cc1ccc(O)cc1)C(=O)N1CCC[C@H]1C(=O)N1CCC[C@H]1C(=O)N[C@@H](C)C(=O)N[C@@H](Cc1ccccc1)C(N)=O)C(C)C` [SLSRFLSFLKIVYPPAF], the figures for the MIC in test [11], in [12] and in test [13] were 25.2 µM (≈ 50 µg/mL), at least 50.4 µM and 25.2 µM (≈ 50 µg/mL), respectively.

With `CC[C@H](C)[C@@H]1NC(=O)[C@H](CO)NC(=O)[C@H](CCCCN)NC(=O)[C@@H](N)CSSC[C@@H](C(=O)O)NC(=O)[C@H](Cc2ccccc2)NC1=O` [CKSIFC], the MIC in test [14] and in [15] was at least 1430 µM in each case.

In the case of `CC[C@H](C)[C@H](NC(=O)[C@H](CCCCN)NC(=O)[C@H](CS)NC(=O)[C@H](C)NC(=O)[C@@H](NC(=O)[C@H](Cc1ccccc1)NC(=O)CNC(=O)[C@H](CC(C)C)NC(=O)CNC(=O)[C@@H](NC(=O)[C@H](CCCCN)NC(=O)CNC(=O)[C@H](CC(C)C)NC(=O)[C@H](CCCCN)NC(=O)[C@H](CCCCN)NC(=O)[C@H](CC(C)C)NC(=O)[C@@H](NC(=O)[C@H](CO)NC(=O)[C@H](CC(C)C)NC(=O)[C@H](CCSC)NC(=O)[C@@H](N)CO)C(C)C)C(C)C)C(C)C)C(=O)N[C@@H](CC(N)=O)C(=O)N[C@@H](CCCCN)C(=O)N[C@@H](CCC(N)=O)C(=O)N[C@@H](CS)C(=O)O` [SMLSVLKKLGKVGLGFVACKINKQC], the MIC was determined as 20 µM (≈ 53.3 µg/mL) in [16]; 10 µM (≈ 26.7 µg/mL) in test [17]; 20 µM (≈ 53.3 µg/mL) in test [18]; 5 µM (≈ 13.3 µg/mL) in test [19]; 5 µM (≈ 13.3 µg/mL) in test [20]; 5 µM (≈ 13.3 µg/mL) in test [21]. Further, the MIC is 5 µM (≈ 13.3 µg/mL) in test [22]; 5 µM (≈ 13.3 µg/mL) in [23]; 10 µM (≈ 26.7 µg/mL) in test [24]; 5 µM (≈ 13.3 µg/mL) in test [25]; 10 µM (≈ 26.7 µg/mL) in [26]; 5 µM (≈ 13.3 µg/mL) in test [27]. Further, the MIC is 5 µM (≈ 13.3 µg/mL) in test [28]; 5 µM (≈ 13.3 µg/mL) in test [29]; 2.5 µM (≈ 6.66 µg/mL) in test [30]; 5 µM (≈ 13.3 µg/mL) in test [31]; 5 µM (≈ 13.3 µg/mL) in test [32]; 5 µM (≈ 13.3 µg/mL) in test [33]. The MIC in [34] came to 5 µM (≈ 13.3 µg/mL); in test [35], 2.5 µM (≈ 6.66 µg/mL); in [36] it was 2.5 µM (≈ 6.66 µg/mL); in test [37], 2.5 µM (≈ 6.66 µg/mL); in test [38], 5 µM (≈ 13.3 µg/mL); in test [39] it was 5 µM (≈ 13.3 µg/mL). The MIC is 10 µM (≈ 26.7 µg/mL) in test [40]; at least 100 µM in test [41]; 10 µM (≈ 26.7 µg/mL) in test [42]; 10 µM (≈ 26.7 µg/mL) in test [43]; 10 µM (≈ 26.7 µg/mL) in test [44]; 10 µM (≈ 26.7 µg/mL) in test [45].

With `CC(C)[C@H](NC(=O)[C@H](CS)NC(=O)[C@@H](NC(=O)[C@H](CCCN=C(N)N)NC(=O)[C@H](CCCCN)NC(=O)CNC(=O)[C@H](CC(N)=O)NC(=O)[C@H](CS)NC(=O)[C@@H](N)Cc1ccc(O)cc1)C(C)C)C(=O)N[C@@H](CS)C(=O)N[C@@H](CCCN=C(N)N)C(N)=O` [YCNGKRVCVCR], the MIC in [11] turned out to be 11.5 µM (≈ 15 µg/mL); in test [46], 11.5 µM (≈ 15 µg/mL); in [47] it was 5.77 µM (≈ 7.49 µg/mL); in test [48] it was 11.5 µM (≈ 15 µg/mL); in test [49] it was 23.1 µM (≈ 30 µg/mL); in test [50] it was 38.4 µM (≈ 50 µg/mL). Further, the MIC was 11.5 µM (≈ 15 µg/mL) in test [51], 23.1 µM (≈ 30 µg/mL) in test [52], over 76.9 µM in test [44] and 11.5 µM (≈ 15 µg/mL) in test [53].
